According to patent US11389455B2, “Inhibitors of HIV-1 integrase multimerization” (Institute for Cancer Research, priority 2017, dated 2022):
Where two headings read alike, the source gives them in different places.

Experiments:
[1] = test system: Envelope pseudotyped virus particles infecting HeLa cells; assay: Inhibition of infectivity, single round GFP reporter virus, percent GFP positive cells; conditions: read-out: Infectivity EC50
[2] = test system: HeLa cells
[3] = biological target: T1, HIV IN (Wild-type monomer) (Human immunodeficiency virus type 1 group M subtype B, UniProt P04585); format: biochemical, HIV-1; conditions: for I.I.(K Counts) CI/SI: ratio concerted/single end integration counts
T1 construct: 1 uM HIV IN (Wild-type monomer)

[4] = biological target: Prototype Foamy Virus (PFV) integrase (Human spumaretrovirus, UniProt P14350); assay: Specificity: single end and concerted integration in vitro, PFV integrase; format: biochemical; conditions: Table 6
[5] = biological target: T2, Avian Sarcoma Virus integrase (UniProt P03354); assay: Specificity: single end and concerted integration in vitro, ASV integrase; format: biochemical; conditions: Table 6
T2 sequence (P03354 1281-1567): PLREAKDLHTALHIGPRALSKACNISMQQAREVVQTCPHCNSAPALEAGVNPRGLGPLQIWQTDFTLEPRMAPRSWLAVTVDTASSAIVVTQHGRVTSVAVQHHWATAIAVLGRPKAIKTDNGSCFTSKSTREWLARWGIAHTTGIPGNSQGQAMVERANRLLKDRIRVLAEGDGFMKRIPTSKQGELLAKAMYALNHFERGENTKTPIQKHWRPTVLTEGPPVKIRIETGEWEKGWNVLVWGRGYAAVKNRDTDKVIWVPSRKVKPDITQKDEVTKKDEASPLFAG

[6] = test system: HeLa cells; assay: Cell toxicity during the infection experiment (Tox/Infect), 24 hours exposure; conditions: only 24 hours of exposure
[7] = HeLa cells, compound exposure for 3 days, preliminary
[8] = Table 1, cross validation assay at compound concentration of 10 uM
[9] = Table 5, concerted integration, read-out: Concerted IC50
[10] = Table 5, single-end integration, read-out: Single End IC50
[11] = Table 6, read-out: HIV Concerted IC50
[12] = Table 6, read-out: HIV Single End IC50

For `Cn1ncnc2c(=O)n(C)c(=O)nc1-2` [Formula I-1], the EC50 [1] was 0.3 µM, the “Toxicity LD50” value [2, 7] was 0.43 µM and the “Relative % concerted integration” value [3, 8] was 3.84%. The IC50 ([3]; Table 1, read-out: IC50 (concerted integration)) was 0.2 µM, the activity at 0.001 µM ([3]; Table 4, Form F3 (concerted integration), 0.001 uM, read-out: Rel % Activity) was 99.6% and the activity at 0.005 µM ([3]; Table 4, Form F3 (concerted integration), 0.005 uM, read-out: Rel % Activity) was 83.8%. The activity at 0.01 µM ([3]; Table 4, Form F3 (concerted integration), 0.01 uM, read-out: Rel % Activity) was 92.4%, the activity at 0.05 µM ([3]; Table 4, Form F3 (concerted integration), 0.05 uM, read-out: Rel % Activity) was 78.2% and the activity at 0.1 µM ([3]; Table 4, Form F3 (concerted integration), 0.1 uM, read-out: Rel % Activity) was 75.3%. For the same molecule, the activity at 0.5 µM ([3]; Table 4, Form F3 (concerted integration), 0.5 uM, read-out: Rel % Activity) was 17.4%, the activity at 1 µM ([3]; Table 4, Form F3 (concerted integration), 1 uM, read-out: Rel % Activity) was 6.42% and the activity at 5 µM ([3]; Table 4, Form F3 (concerted integration), 5 uM, read-out: Rel % Activity) was 0.705%. It also gave an activity at 10 µM ([3]; Table 4, Form F3 (concerted integration), 10 uM, read-out: Rel % Activity) of 0.419%, an activity at 50 µM ([3]; Table 4, Form F3 (concerted integration), 50 uM, read-out: Rel % Activity) of 0.366% and an activity at 100 µM ([3]; Table 4, Form F3 (concerted integration), 100 uM, read-out: Rel % Activity) of 0.453%. For the same molecule, the activity at 500 µM ([3]; Table 4, Form F3 (concerted integration), 500 uM, read-out: Rel % Activity) was 0.433%, the activity at 1000 µM ([3]; Table 4, Form F3 (concerted integration), 1000 uM, read-out: Rel % Activity) was 1.34% and the IC50 [3, 9] was 0.2 µM. The IC50 [3, 10] was 1.25 µM, the IC50 [3, 11] was 0.2 µM and the IC50 [3, 12] was 1.25 µM. The “I.I.(K Counts) CI/SI” value ([3]; 0.001 uM) was 1.336, the “I.I.(K Counts) CI/SI” value ([3]; 0.005 uM) was 1.067 and the “I.I.(K Counts) CI/SI” value ([3]; 0.01 uM) was 1.193. The “I.I.(K Counts) CI/SI” value ([3]; 0.05 uM) was 1.007, the “I.I.(K Counts) CI/SI” value ([3]; 0.1 uM) was 0.978 and the “I.I.(K Counts) CI/SI” value ([3]; 0.5 uM) was 0.331. For the same molecule, the “I.I.(K Counts) CI/SI” value ([3]; 1 uM) was 0.159, the “I.I.(K Counts) CI/SI” value ([3]; 5 uM) was 0.034 and the “I.I.(K Counts) CI/SI” value ([3]; 10 uM) was 0.022. For the same molecule, the “I.I.(K Counts) CI/SI” value ([3]; 50 uM) was 0.020, the “I.I.(K Counts) CI/SI” value ([3]; 100 uM) was 0.026 and the “I.I.(K Counts) CI/SI” value ([3]; 500 uM) was 0.033. For the same molecule, the “I.I.(K Counts) CI/SI” value ([3]; 1000 uM) was 0.107, the activity at 0.005 µM ([3]; read-out: Rel % Activity) was 106% and the IC50 ([4]; read-out: PFV Concerted IC50) was > 1000 µM. The IC50 ([4]; read-out: PFV Single End IC50) was > 1000 µM, the IC50 ([5]; read-out: ASV Concerted IC50) was > 100 µM and the IC50 ([5]; read-out: ASV Single End IC50) was > 100 µM. The “Tox/Infect LD50” value [6] was >5 µM.
For `CCn1nc(-c2ccccn2)nc2c(=O)n(C)c(=O)nc1-2` [Formula I-2], the “Relative % concerted integration” value [3, 8] was 6.33%.
For `CCn1nc(-c2cccs2)nc2c(=O)n(C)c(=O)nc1-2` [Formula I-3], the “Relative % concerted integration” value [3, 8] was 2.07%.
`CCn1nc(-c2cc(Br)ccc2F)nc2c(=O)n(C)c(=O)nc1-2` [Formula I-4] was tested, and the “Relative % concerted integration” value [3, 8] was 0.26%.
With `CCn1nc(-c2ccc(C(F)(F)F)cc2)nc2c(=O)n(C)c(=O)nc1-2` [Formula I-5] the “Relative % concerted integration” value [3, 8] was 0.72%.
In the case of `CCn1nc(-c2cc(Br)cs2)nc2c(=O)n(C)c(=O)nc1-2` [Formula I-6], the “Relative % concerted integration” value [3, 8] is reported as 1.72%.
In the case of `CCCc1nc2c(=O)n(C)c(=O)nc-2n(C)n1` [Formula I-7], the “Relative % concerted integration” value [3, 8] is reported as 0.07%.
For `Cn1nc(-c2ccc(F)cc2)nc2c(=O)n(C)c(=O)nc1-2` [Formula I-8], the “Relative % concerted integration” value [3, 8] was 0.42%.
In the case of `Cn1nc(-c2ccccc2)nc2c(=O)n(C)c(=O)nc1-2` [Formula I-9], the “Relative % concerted integration” value [3, 8] is reported as 2.73%.
In the case of `Cn1nc(-c2ccc(C(F)(F)F)cc2)nc2c(=O)n(C)c(=O)nc1-2` [Formula I-10], the “Relative % concerted integration” value [3, 8] is reported as 1.56%.
With `Cn1nc(/C=C\c2ccccc2)nc2c(=O)n(C)c(=O)nc1-2` [Formula I-11] the “Relative % concerted integration” value [3, 8] was 1.76%.
For `Cn1nc(-c2ccc([N+](=O)[O-])cc2)nc2c(=O)n(C)c(=O)nc1-2` [Formula I-12], the “Relative % concerted integration” value [3, 8] was 3.26%.
`CCc1ccc(-c2nc3c(=O)n(C)c(=O)nc-3n(CC)n2)cc1` [Formula I-13] was tested, and the “Toxicity LD50” value ([2]; human, 3 days) was 3.2 µM, the “Relative % concerted integration” value [3] was 7.07% (IC50 of 0.27 μM) and the IC50 ([3]; Concerted IC50) was 0.27 µM. It also gave an IC50 ([3]; IC50 (concerted integration)) of 0.27 µM and an IC50 ([3]; Single End IC50) of 1.4 µM.
`O=C(O)CCCCCNc1ccc([N+](=O)[O-])c2nonc12` [II-2] was tested, and the “Toxicity LD50” value [2, 7] was >50 µM, the IC50 ([3]; Concerted IC50) was 500 µM and the IC50 ([3]; Single End IC50) was > 1000 µM.
With `Nc1ccc(N2CCCCC2)c2nonc12` [II-3] the “Toxicity LD50” value ([2]; human, 3 days) was 25 µM, the IC50 ([3]; Concerted IC50) was 15 µM and the IC50 ([3]; Single End IC50) was > 1000 µM.
With `O=C(CCCCCNc1ccc([N+](=O)[O-])c2nonc12)ON1C(=O)CCC1=O` [II-4] the EC50 [1] was 5 µM, the “Toxicity LD50” value [2, 7] was >50 µM and the IC50 [3, 9] was 16 µM. It also gave an IC50 [3, 10] of 71 µM, an IC50 [3, 11] of 16 µM and an IC50 [3, 12] of 65 µM. The IC50 ([4]; read-out: PFV Concerted IC50) was > 390 µM, the IC50 ([4]; read-out: PFV Single End IC50) was > 350 µM and the IC50 ([5]; read-out: ASV Concerted IC50) was 53 µM. The IC50 ([5]; read-out: ASV Single End IC50) was 175 µM and the “Tox/Infect LD50” value [6] was >20 µM.
With `Cc1nnc(C(=O)NC(C)(C)c2nc(C(=O)NCc3ccc(F)cc3)c(O)c(=O)n2C)o1` [RAL, Raltegravir, reference compound] the EC50 [1] was 0.05 µM, the “Toxicity LD50” value [2, 7] was >20 µM and the IC50 ([4]; read-out: PFV Concerted IC50) was 1 µM. For the same molecule, the IC50 ([4]; read-out: PFV Single End IC50) was < 10 µM, the IC50 ([5]; read-out: ASV Concerted IC50) was 0.6 µM and the IC50 ([5]; read-out: ASV Single End IC50) was 22 µM. For the same molecule, the “Tox/Infect LD50” value [6] was >10 µM.
